Measured values published in patent US20060246131A1, “Use of metformin to counteract weight gain associated with psychotropic medications” (priority 2005, published 2006).

What was measured:
[1] = person treated with GEODON; cited from earlier work
[2] = cited from earlier work
[3] = Case study: mood and behavior of a patient with Bipolar Affective Disorder NOS on aripiprazole; format: in vivo, human; settings: person, BPAD NOS; aripiprazole 5 mg once daily; 2 weeks later
Source text: A person presented with behavioral problems.
The time of onset for childhood BPAD is frequently during the later years of the latency period, and typically includes rapid cycling, with disturbances in sleep, behavioral issues including aggression, grandiosity, and hyper-sexuality. At the time of evaluation, it was difficult to know if the patient also had co-occurring ADHD, combined subtype and Oppositional Defiant Disorder. Bipolar Affective Disorder, NOS appeared to be the more parsimonious diagnosis.
Additionally they were asked to keep a mood chart.

[4] = metformin 500 mg twice daily together with aripiprazole, over a 3-month period

O=C1Cc2cc(CCN3CCN(c4nsc5ccccc45)CC3)c(Cl)cc2N1 [GEODON]
weight gain [1]: significant weight gain

CN(C)C(=N)NC(=N)N.Cl [Metformin hydrochloride, N,N-dimethylimidocarbonimidic diamide hydrochloride]
pH of a 1% aqueous solution [2]: 6.68

O=C1CCc2ccc(OCCCCN3CCN(c4cccc(Cl)c4Cl)CC3)cc2N1 [aripiprazole, 7-[4-[4-(2,3-dichlorophenyl)-1-piperazinyl]butoxy]-3,4-dihydrocarbostyril]
behavioral outcome on return visit [3]: much more settled, with fewer outbursts, and no behavioral concerns

CN(C)C(=N)N=C(N)N [metformin, N,N-dimethylimidocarbonimidic diamide]
Body Mass Index (BMI) after treatment ([4]; BMI from 24.9): 22.6 | decrease in body weight [4]: seven
